Assay results taken from ChEMBL document CHEMBL1158549, “Synthesis and evaluation of a series of C5'-substituted duocarmycin SA analogs” (Bioorg Med Chem Lett, 2010).

System: L1210
Experiment: Cytotoxicity against mouse L1210 cells
Type: functional, cell-based

| Compound | IC50 |
| --- | --- |
| COC(=O)c1cc2c3c(cc(O)c2[nH]1)N(C(=O)c1cc2cc(OC)ccc2[nH]1)C[C@H]3CCl | 21 pM |
| COC(=O)c1cc2c3c(cc(O)c2[nH]1)N(C(=O)c1cc2cc(C(C)=O)ccc2[nH]1)C[C@H]3CCl | 38 pM |
| COC(=O)c1cc2c3c(cc(O)c2[nH]1)N(C(=O)c1cc2cc(OC(F)(F)F)ccc2[nH]1)C[C@H]3CCl | 85 pM |
| COC(=O)c1cc2c3c(cc(O)c2[nH]1)N(C(=O)c1cc2cc(C(F)(F)F)ccc2[nH]1)C[C@H]3CCl | 75 pM |
| COC(=O)c1cc2c([nH]1)C(=O)C=C1N(C(=O)c3cc4cc(C)ccc4[nH]3)C[C@H]3C[C@]123 | 77 pM |
| COC(=O)c1cc2c([nH]1)C(=O)C=C1N(C(=O)c3cc4cc(O)ccc4[nH]3)C[C@H]3C[C@]123 | 53 pM |
| COC(=O)c1cc2c3c(cc(O)c2[nH]1)N(C(=O)c1cc2cc(O)ccc2[nH]1)C[C@H]3CCl | 50 pM |
| COC(=O)c1ccc2[nH]c(C(=O)N3C[C@H]4C[C@@]45C3=CC(=O)c3[nH]c(C(=O)OC)cc35)cc2c1 | 47 pM |
| COC(=O)c1cc2c([nH]1)C(=O)C=C1N(C(=O)c3cc4cc(C#N)ccc4[nH]3)C[C@H]3C[C@]123 | 7 pM |
| COC(=O)c1cc2c([nH]1)C(=O)C=C1N(C(=O)c3cc4cc(C(C)=O)ccc4[nH]3)C[C@H]3C[C@]123 | 43 pM |
| COC(=O)c1cc2c([nH]1)C(=O)C=C1N(C(=O)c3cc4cc(OC(F)(F)F)ccc4[nH]3)C[C@H]3C[C@]123 | 49 pM |
| COC(=O)c1cc2c3c(cc(O)c2[nH]1)N(C(=O)c1cc2ccccc2[nH]1)C[C@H]3CCl | 72 pM |
| COC(=O)c1cc2c3c(cc(O)c2[nH]1)N(C(=O)c1cc2cc(C)ccc2[nH]1)C[C@H]3CCl | 78 pM |
| COC(=O)c1cc2c([nH]1)C(=O)C=C1N(C(=O)c3cc4cc(OC)c(O)cc4[nH]3)C[C@H]3C[C@]123 | 7 pM |
| COC(=O)c1cc2c([nH]1)C(=O)C=C1N(C(=O)c3cc4cc(O)c(OC)cc4[nH]3)C[C@H]3C[C@]123 | 33 pM |
| COC(=O)c1ccc2[nH]c(C(=O)N3C[C@@H](CCl)c4c3cc(O)c3[nH]c(C(=O)OC)cc43)cc2c1 | 48 pM |
| COC(=O)c1cc2c3c(cc(O)c2[nH]1)N(C(=O)c1cc2cc(F)ccc2[nH]1)C[C@H]3CCl | 79 pM |
| COC(=O)c1cc2c3c(cc(O)c2[nH]1)N(C(=O)c1cc2cc(NC(C)=O)ccc2[nH]1)C[C@H]3CCl | 81 pM |
| COC(=O)c1cc2c3c(cc(O)c2[nH]1)N(C(=O)c1cc2cc(S(C)(=O)=O)ccc2[nH]1)C[C@H]3CCl | 58 pM |
| COC(=O)c1cc2c([nH]1)C(=O)C=C1N(C(=O)c3cc4cc(C(F)(F)F)ccc4[nH]3)C[C@H]3C[C@]123 | 65 pM |
| CNC(=O)c1ccc2[nH]c(C(=O)N3C[C@H]4C[C@@]45C3=CC(=O)c3[nH]c(C(=O)OC)cc35)cc2c1 | 70 pM |
| COC(=O)c1cc2c([nH]1)C(=O)C=C1N(C(=O)c3cc4cc(F)ccc4[nH]3)C[C@H]3C[C@]123 | 54 pM |
| CNC(=O)c1ccc2[nH]c(C(=O)N3C[C@@H](CCl)c4c3cc(O)c3[nH]c(C(=O)OC)cc43)cc2c1 | 61 pM |
| COC(=O)c1cc2c([nH]1)C(=O)C=C1N(C(=O)c3cc4cc([N+](=O)[O-])ccc4[nH]3)C[C@H]3C[C@]123 | 41 pM |
| COC(=O)c1cc2c([nH]1)C(=O)C=C1N(C(=O)c3cc4cc(NC(C)=O)ccc4[nH]3)C[C@H]3C[C@]123 | 83 pM |
| COC(=O)c1cc2c([nH]1)C(=O)C=C1N(C(=O)c3cc4cc(S(C)(=O)=O)ccc4[nH]3)C[C@H]3C[C@]123 | 58 pM |
| COC(=O)c1cc2c3c(cc(O)c2[nH]1)N(C(=O)c1cc2cc(C#N)ccc2[nH]1)C[C@H]3CCl | 9 pM |
| COC(=O)c1cc2c([nH]1)C(=O)C=C1N(C(=O)c3cc4cc(OC)ccc4[nH]3)C[C@H]3C[C@]123 | 7.5 pM |
| COC(=O)c1cc2c([nH]1)C(=O)C=C1N(C(=O)c3cc4ccccc4[nH]3)C[C@H]3C[C@]123 | 68 pM |
| COC(=O)c1cc2c([nH]1)C(=O)C=C1N(C(=O)c3cc4cc(OC)c(OC)c(OC)c4[nH]3)C[C@H]3C[C@]123 [DUOCARMYCIN] | 6 pM |
